Patent EP4806892A1, “CEREBLON E3 UBIQUITIN LIGASE INHIBITOR” (GAN & LEE PHARMACEUTICALS CO., LTD., priority 2023, dated 2025)

What was measured:
Format in all cases: cell-based
IRAK4 = molecular target: T1, IRAK4 (Homo sapiens, UniProt Q9NWZ3); experiment: IRAK4 degradation in THP-1 cells (Western blot); conditions: 24 hours
T1 construct: The supernatant was carefully collected and analyzed for IRAK4 protein levels by immunoblotting; host or cells: THP-1
T1 sequence (Q9NWZ3 1-460): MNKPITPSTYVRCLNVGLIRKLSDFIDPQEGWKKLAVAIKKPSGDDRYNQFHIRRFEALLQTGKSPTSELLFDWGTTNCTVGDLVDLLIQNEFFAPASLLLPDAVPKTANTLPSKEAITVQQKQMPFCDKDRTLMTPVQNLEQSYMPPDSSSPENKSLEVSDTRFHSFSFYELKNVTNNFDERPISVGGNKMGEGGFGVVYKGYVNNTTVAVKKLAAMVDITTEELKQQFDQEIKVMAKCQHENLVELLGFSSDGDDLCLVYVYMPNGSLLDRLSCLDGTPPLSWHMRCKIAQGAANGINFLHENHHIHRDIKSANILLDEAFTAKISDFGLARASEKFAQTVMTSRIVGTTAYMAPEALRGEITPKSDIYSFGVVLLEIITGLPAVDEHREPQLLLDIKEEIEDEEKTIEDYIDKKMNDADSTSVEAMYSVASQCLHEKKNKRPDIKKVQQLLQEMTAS
Procedure: 2 mL of THP-1 cells were seeded into a 6-well cell culture plate at a density of 4 × 10^5 cells/well. After adding 1 µL of compound in dimethyl sulfoxide solution (final concentration 10-10,000 nM) and continuing to incubate at 37°C, 5% CO2 for 24 hours, cells were collected into 2 mL centrifuge tubes and centrifuged at 125 g at 4°C for 5 minutes. The cell pellet was washed once with 1 mL of pre-chilled 1× DPBS and resuspended and lysed in 50 µL of RIPA lysis buffer (P0013B, Beyotime) and 1× protease inhibitor cocktail (P1005, Beyotime). After incubation on ice for 20 minutes, the cells were centrifuged at 14,000 g at 4°C for 30 minutes. The supernatant was carefully collected and analyzed for IRAK4 protein levels by immunoblotting.
Western blotting: The total protein concentration in the collected cell lysate supernatant was determined using the BCA protein concentration assay kit (enhanced) (P0009, Beyotime). Based on the total protein concentration detected by BCA, the protein concentration was adjusted to 1 µg/µL using RIPA lysis buffer and 5× SDS-PAGE protein loading buffer (MB01015, GenScript). The protein was denatured in a 95°C water bath for 5 minutes. After denaturation, the condensed water on the centrifuge tube wall was collected by centrifugation and used as the loading sample. […] Electrophoresis was performed at 100 V for 20 minutes, then switched to 150 V for 40 minutes. After electrophoresis, the proteins in the SDS-PAGE gel were transferred to a PVDF membrane and transferred at a constant voltage of 100 V for 60 minutes. After transfer, the PVDF membrane corresponding to the IRAK4 protein and internal reference protein was cut and incubated in 1× QuickBlock blocking buffer (P0252, Beyotime) for 30 minutes at room temperature on a shaker. […] After incubation, the PVDF membrane was washed three times with 1× TBST buffer for 5 minutes each. […] The membrane was then washed again three times with 1× TBST buffer for 5 minutes each. Finally, the membrane was imaged using a dual-color infrared laser imaging system (Odyssey DLx, LI-COR). Protein maps were analyzed for grayscale values using Image Studio Lite software. The grayscale correction value for each sample was calculated using the formula: grayscale correction value = grayscale value of the target protein / grayscale value of the corresponding internal reference. The grayscale correction values of the compound group and the control group were then compared to calculate the degradation rate of the compound.

TNFα = experiment: LPS-induced TNFα secretion by PBMC (HTRF detection); conditions: Homo sapiens, hPBMC, 20 hours compound then LPS 200 ng/mL for 5 hours, read-out: IC50 (inhibition of LPS-induced TNFα)
Procedure: (§1) After thawing, cryopreserved hPBMC (FPB003F-C, Shanghai OriBiotech) cells were resuspended in RPMI 1640 medium (30-2001,ATCC) containing 10% inactivated FBS (10099141C, Gibco) and cultured overnight at 37°C and 5% CO2. The next day, hPBMC cells were seeded in a 96-well cell culture plate at a density of 2 × 10^5 cells/well/100 µL (2 × 10^6 cells/mL), and 100 µL of compound in dimethyl sulfoxide solution (final concentration 0.0064-2500 nM) was added. […] The cell plate was placed in a 37°C, 5% CO2 incubator for 5 hours, and then centrifuged at 1000 rpm for 15 minutes. 100 µL of cell supernatant was collected from each well for cytokine concentration testing, which was tested immediately or frozen at -80°C for testing.
The TNFα concentration in the supernatant of LPS-induced THP-1 cells was determined using the TNF […] detection kit (62[…], PerkinElmer).
TNFα standard solutions of varying concentrations were prepared according to the product instructions, ranging from 0 to 2500 pg/mL. Equal volumes of Eu Cryptate antibody (1×) and d2 antibody (1×) were used to prepare the antibody mixture. 16 µL of standard solution or sample supernatant and 4 µL of the antibody mixture were added to each well of a 384-well white plate. The mixture was centrifuged at 800 rpm for 1 minute and incubated at room temperature for 2 hours. The absorbance at 620 nm and […] was read using a microplate reader (SPARK m1000pro, TECAN). A standard curve was plotted using the signal values of each TNFα standard solution. The TNFα concentration in each sample was determined based on the corresponding concentration of the signal value on the standard curve. The inhibitory rate of the compound on LPS-induced TNFα expression in THP-1 cell supernatants at different drug concentrations was calculated based on the TNFα concentration. The inhibition rate data were plotted in GraphPad Prism 8.0 software, and the IC50 value was calculated. Inhibition Rate = [1−(OD(Sample)−OD(Blank))/(OD(Control)−OD(Blank))] × 100% [formula] Table 9: Degradation effect of example compounds on IRAK4 in PBMC cells

IL-6 = experiment: LPS-induced IL-6 secretion by hPBMC (ELISA); conditions: Homo sapiens, 20 h compound then LPS 200 ng/mL for 5 h; for inhibition at […]: 2500nM, read-out: Inhibition Rate of IL-6 (2500nM)
Procedure: as §1, with “OriBiotech.)” for “OriBiotech)”, “(30-2001, ATCC)” for “(30-2001,ATCC)”, “h,” for “hours,”, “min.” for “minutes.”, “awhich” for “which”
The IL-6 concentration in the supernatant of hPBMC cells induced by LPS was determined using a Human IL-6 ELISA kit (D6050, RD).
IL-6 standard solutions of varying concentrations were prepared according to the product instructions, ranging from 0 to 300 pg/mL. 100 µL of Assay Diluent RD1W and 100 µL of standard solution or sample supernatant were added to a pre-coated ELISA plate and incubated at room temperature for 2 hours. After washing the plate four times with 1× wash buffer, then 200 µL of Human IL-6 Conjugate was added and incubated at room temperature for 2 hours. After washing the plate four times with 1× wash buffer, then 200 µL of Substrate Solution was added and incubated at room temperature for 20 minutes. Finally, 50 µL of Stop Solution was added to terminate the reaction. The absorbance at 450 nm and 570 nm were read using a microplate reader (SPARK m1000pro, TECAN). The standard curve was plottd by the signal value of each concentration of IL-6 standard solution, and the IL-6 concentration in each sample was determined according to the corresponding concentration of the signal value of each well on the standard curve. The inhibition rate of the compound on LPS-induced IL-6 in the hPBMC cell supernatant at different drug concentrations was calculated according to the IL-6 concentration. The inhibition rate data were plotted in GraphPad Prism 8.0 software to calculate the IC50 value. Inhibition Rate = [1−(OD(sample)−OD(blank))/(OD(control)−OD(blank))] × 100% [formula] Table 10: Inhibitory effect of Example compounds on LPS-induced IL-6 secretion by hPBMC

Row | SMILES | IRAK4 degradation (10nM) (IRAK4) | IRAK4 degradation (100nM) (IRAK4) | IC50 (TNFα) [nM] | inhibition at […] (IL-6) [%] | inhibition at 0.02 µM (IL-6; 20nM, read-out: Inhibition Rate of IL-6 (20nM)) [%]
1 | O=C1CCN(c2ccc3c(c2)OCC[C@H]2CN(C[C@H]4CC[C@@H](OC5CCN(C(=O)[C@H]6CC[C@H](n7cc(NC(=O)c8cnn9ccc(N%10C[C@H]%11C[C@@H]%10CO%11)nc89)c(C(F)F)n7)CC6)CC5)CC4)CCN32)C(=O)N1 [IR-P-1] | B (50% > degradation rate ≥ 20%) | B (50% > degradation rate ≥ 20%) | 78.6 | 87 | 
2 | O=C1CCN(c2ccc3c(c2)OCC[C@@H]2CN(C[C@H]4CC[C@@H](OC5CCN(C(=O)[C@H]6CC[C@H](n7cc(NC(=O)c8cnn9ccc(N%10C[C@H]%11C[C@@H]%10CO%11)nc89)c(C(F)F)n7)CC6)CC5)CC4)CCN32)C(=O)N1 [IR-P-2] | B (50% > degradation rate ≥ 20%) | B (50% > degradation rate ≥ 20%) | 184 | 86 | 
3 | O=C1CCN(c2ccc3c(c2)OCC[C@@H]2CN(C[C@H]4CC[C@H](OC5CCN(C(=O)[C@H]6CC[C@H](n7cc(NC(=O)c8cnn9ccc(N%10C[C@H]%11C[C@@H]%10CO%11)nc89)c(C(F)F)n7)CC6)CC5)CC4)CCN32)C(=O)N1 [IR-P-4] | B (50% > degradation rate ≥ 20%) | A (a degradation rate ≥ 50%) | 142 | 84 | 

The next compounds have a lower IC50 (TNFα) than those just listed; values first:

Row | IRAK4 degradation (10nM) (IRAK4) | IRAK4 degradation (100nM) (IRAK4) | IC50 (TNFα) [nM] | SMILES | inhibition at […] (IL-6) [%] | inhibition at 0.02 µM (IL-6; 20nM, read-out: Inhibition Rate of IL-6 (20nM)) [%]
4 | A (a degradation rate ≥ 50%) | A (a degradation rate ≥ 50%) | 64.3 | O=C1CCN(c2ccc3c(c2)OCC[C@H]2CN(C[C@H]4CC[C@H](OC5CCN(C(=O)[C@H]6CC[C@H](n7cc(NC(=O)c8cnn9ccc(N%10C[C@H]%11C[C@@H]%10CO%11)nc89)c(C(F)F)n7)CC6)CC5)CC4)CCN32)C(=O)N1 [IR-P-3] | 89 | 63
5 | B (50% > degradation rate ≥ 20%) |  | 69.6 | O=C1CCN(c2ccc3c(c2)OC2(CC3)CN(CC3CCN(C(=O)[C@H]4CC[C@H](n5cc(NC(=O)c6cnn7ccc(N8C[C@H]9C[C@@H]8CO9)nc67)c(C(F)F)n5)CC4)CC3)C2)C(=O)N1 [IR-P-5] | 78 | 
